Experimental data taken from US9718785B2, “1,3-Disubstituted cyclopentane derivatives” (MERCK PATENT GMBH, priority 2013, dated 2017).

Each compound was assayed against T1, human recombinant full-length fatty acid synthase (FASN) (Homo sapiens, UniProt P49327) (assay: Biochemical activity testing of human fatty acid synthase FASN (NADPH fluorescence intensity enzyme assay)). Details: human recombinant FASN, enzyme assay.
T1 construct: 40 nM human recombinant full-length fatty acid synthase (produced in-house in SF9 cells); made in house; host or cells: SF9 insect cells
T1 sequence (P49327 whole entry): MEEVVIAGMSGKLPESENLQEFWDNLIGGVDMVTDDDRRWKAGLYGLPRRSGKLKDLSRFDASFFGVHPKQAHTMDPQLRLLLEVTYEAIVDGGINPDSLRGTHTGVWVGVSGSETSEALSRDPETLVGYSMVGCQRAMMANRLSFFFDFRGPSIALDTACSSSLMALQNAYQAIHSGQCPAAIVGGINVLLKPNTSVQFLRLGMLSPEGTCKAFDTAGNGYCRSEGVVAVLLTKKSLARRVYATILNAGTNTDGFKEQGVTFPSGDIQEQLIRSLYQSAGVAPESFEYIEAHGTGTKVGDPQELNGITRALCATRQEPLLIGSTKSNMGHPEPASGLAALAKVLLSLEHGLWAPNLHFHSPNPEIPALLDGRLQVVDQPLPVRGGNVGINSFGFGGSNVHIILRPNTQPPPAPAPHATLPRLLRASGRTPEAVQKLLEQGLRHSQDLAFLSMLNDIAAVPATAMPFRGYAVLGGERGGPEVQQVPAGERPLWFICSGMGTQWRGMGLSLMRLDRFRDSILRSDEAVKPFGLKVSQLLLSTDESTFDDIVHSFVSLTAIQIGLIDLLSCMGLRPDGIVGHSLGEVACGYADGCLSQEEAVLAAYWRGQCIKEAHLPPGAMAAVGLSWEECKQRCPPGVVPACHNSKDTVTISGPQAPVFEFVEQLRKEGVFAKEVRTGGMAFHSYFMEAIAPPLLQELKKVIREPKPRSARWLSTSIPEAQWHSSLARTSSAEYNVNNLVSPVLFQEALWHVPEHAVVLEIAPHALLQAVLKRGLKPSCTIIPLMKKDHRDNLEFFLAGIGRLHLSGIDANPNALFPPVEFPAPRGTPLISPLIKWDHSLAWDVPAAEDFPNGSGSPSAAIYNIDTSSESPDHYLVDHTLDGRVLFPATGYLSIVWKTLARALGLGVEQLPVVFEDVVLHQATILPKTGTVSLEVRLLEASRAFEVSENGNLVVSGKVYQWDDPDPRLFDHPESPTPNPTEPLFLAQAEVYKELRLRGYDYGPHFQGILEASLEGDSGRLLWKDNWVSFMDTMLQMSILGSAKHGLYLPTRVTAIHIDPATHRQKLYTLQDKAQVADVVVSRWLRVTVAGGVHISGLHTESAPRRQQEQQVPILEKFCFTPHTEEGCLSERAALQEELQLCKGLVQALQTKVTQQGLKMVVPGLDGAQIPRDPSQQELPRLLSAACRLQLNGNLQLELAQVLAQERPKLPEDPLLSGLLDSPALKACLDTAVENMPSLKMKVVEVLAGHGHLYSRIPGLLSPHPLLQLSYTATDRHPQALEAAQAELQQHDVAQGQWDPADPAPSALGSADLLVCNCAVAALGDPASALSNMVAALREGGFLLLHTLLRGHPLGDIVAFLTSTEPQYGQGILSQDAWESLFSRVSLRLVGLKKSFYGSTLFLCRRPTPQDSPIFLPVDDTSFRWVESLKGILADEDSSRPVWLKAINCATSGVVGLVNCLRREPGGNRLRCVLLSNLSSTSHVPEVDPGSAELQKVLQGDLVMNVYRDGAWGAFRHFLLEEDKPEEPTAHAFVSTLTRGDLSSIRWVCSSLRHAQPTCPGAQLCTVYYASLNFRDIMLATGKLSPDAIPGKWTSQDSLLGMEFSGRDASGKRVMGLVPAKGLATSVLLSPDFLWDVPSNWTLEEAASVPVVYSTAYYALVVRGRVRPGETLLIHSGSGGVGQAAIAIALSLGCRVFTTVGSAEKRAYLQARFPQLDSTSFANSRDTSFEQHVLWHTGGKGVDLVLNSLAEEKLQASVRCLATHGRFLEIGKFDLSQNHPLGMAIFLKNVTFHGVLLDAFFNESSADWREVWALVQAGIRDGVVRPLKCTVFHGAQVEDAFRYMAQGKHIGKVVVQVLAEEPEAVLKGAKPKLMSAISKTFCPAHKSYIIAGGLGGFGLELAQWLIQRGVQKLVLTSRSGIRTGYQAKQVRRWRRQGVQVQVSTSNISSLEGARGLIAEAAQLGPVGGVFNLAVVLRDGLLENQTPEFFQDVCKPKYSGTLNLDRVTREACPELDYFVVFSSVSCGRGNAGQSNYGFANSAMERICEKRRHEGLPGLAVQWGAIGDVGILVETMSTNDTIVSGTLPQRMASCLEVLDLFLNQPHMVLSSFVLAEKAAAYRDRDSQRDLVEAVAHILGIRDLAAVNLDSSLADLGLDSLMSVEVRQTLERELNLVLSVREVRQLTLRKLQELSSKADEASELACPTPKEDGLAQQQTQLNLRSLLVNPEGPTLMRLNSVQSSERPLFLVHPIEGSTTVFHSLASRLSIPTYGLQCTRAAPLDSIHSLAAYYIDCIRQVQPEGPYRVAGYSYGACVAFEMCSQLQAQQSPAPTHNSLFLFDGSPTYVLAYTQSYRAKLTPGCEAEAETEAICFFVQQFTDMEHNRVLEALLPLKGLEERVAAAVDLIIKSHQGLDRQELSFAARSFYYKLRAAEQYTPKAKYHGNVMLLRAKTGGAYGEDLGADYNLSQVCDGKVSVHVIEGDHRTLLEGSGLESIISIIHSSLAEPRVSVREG
Excerpt: Biochemical Activity Testing of Human Fatty Acid Synthase FASN
Fatty acid synthase FASN is a multifunctional enzyme with seven catalytic activities thereby synthesising long chain fatty acids especially palmitoyl-CoA in the presence of co-factor NADPH starting from the substrates acetyl-CoA and malonyl-CoA. The reductive synthesis is realized by the oxidation of NADPH to NADP. Since NADPH has a high fluorescence intensity quantum yield compared to NADP with excitation at 340 nm and emission at 460 nm, the reaction can be monitored via the decrease in fluorescence intensity. The biochemical FASN activity testing was performed as 384 well two-time-point kinetic fluorescence intensity assay format in Greiner low volume medium binding 384-well black microtiter plates in a total assay volume of 8 μl and was used for high throughput screen. In each well 3 μl 40 nM human recombinant full-length fatty acid synthase (produced in-house in SF9 cells) were dispensed in the following assay buffer: 50 mM potassium phosphate buffer pH 7.0, 0.005% (w/v) BSA, 2 mM Glutathione, 0.02% Tween-20. Then 2 μl of 200 μM NADPH in assay buffer were added, followed by the addition of the test compounds in 10 dilution concentrations starting with 30 μM (final concentration) to get a final DMSO content of 1% (v/v). The mixture was incubated for at least 15 min at room temperature. After the pre-incubation the enzymatic reaction was started by the addition of 2 μl substrate solution (80 μM acetyl-CoA, 240 μM malonyl-CoA). A first fluorescence intensity measurement (time point one) was performed with an Envision multimode reader (Perkin Elmer LAS Germany GmbH) at excitation wavelength 340 nm (lamp mode) and emission wavelength 460 nm. The reaction was incubated for 30 minutes at room temperature. After this the fluorescence intensity was measured again in the Envision using the same parameters as described above (second time point measurement). The data were analysed by subtracting the first time point measurement value from the second time point measurement value (after the enzymatic reaction). The differences of the emission signals were determined. These reflect directly the conversion rate of NADPH. The full value used was the inhibitor-free reaction. A pharmacological zero value was used like GSK837149A (Sigma-Aldrich) in a final concentration of 5-10 μM. The inhibitory values (IC50) were determined using either the program Symyx Assay Explorer® or Condosseo® from GeneData.
`CCC(=O)N[C@H]1CC[C@@H](n2nncc2-c2ccc(-c3ccc4[nH]c(=O)[nH]c4c3)cc2)C1` [Compound A87, N-((1S,3R)-3-{5-[4-(2-Oxo-2,3-dihydro-1H-benzimidazol-5-yl)-phenyl]-[1,2,3]triazol-1-yl}-cyclopentyl)-propionamide] was tested, and the IC50 was < 300 nM.
In the case of `CCNC(=O)[C@H]1CC[C@@H](n2nncc2-c2ccc(-c3ccc(OCC4CC4)cc3)cc2)C1` [Compound A103, (1S,3R)-3-[5-(4′-Cyclopropylmethoxy-biphenyl-4-yl)-[1,2,3]triazol-1-yl]-cyclopentanecarboxylic acid ethylamide], the IC50 is reported as < 300 nM.
In the case of `CCNC(=O)[C@H]1CC[C@@H](n2cnnc2-c2ccc(-c3ccc4ncsc4c3)cc2)C1` [Compound A65, (1S,3R)-3-[3-(4-Benzothiazol-6-yl-phenyl)-[1,2,4]triazol-4-yl]-cyclopentanecarboxylic acid ethylamide], the IC50 is reported as < 300 nM.
In the case of `CCC(=O)N[C@H]1CC[C@@H](n2nncc2-c2ccc(-c3ccc4c(cnn4C)c3)cc2)C1` [Compound A61, N-((1S,3R)-3-{5-[4-(1-Methyl-1H-indazol-5-yl)-phenyl]-[1,2,3]triazol-1-yl}-cyclopentyl)-propionamide], the IC50 is reported as < 300 nM.
With `CCC(=O)N[C@H]1CC[C@@H](n2nncc2-c2ccc(-c3ccc4cnn(C)c4c3)cc2)C1` [Compound A63, N-((1S,3R)-3-{5-[4-(1-Methyl-1H-indazol-6-yl)-phenyl]-[1,2,3]triazol-1-yl}-cyclopentyl)-propionamide] the IC50 was < 300 nM.
With `CC1(NC(=O)[C@H]2CC[C@@H](n3cncc3-c3ccc(-c4ccc5cc[nH]c5c4)cc3)C2)CC1` [Compound A7, (1S,3R)-3-{5-[4-(1H-indol-6-yl)-phenyl]-imidazol-1-yl}-cyclopentanecarboxylic acid (1-methyl-cyclopropyl)-amide] the IC50 was < 300 nM.
For `CCC(=O)N[C@H]1CC[C@@H](n2nncc2-c2ccc(-c3ccc(OC)cc3OC)cc2)C1` [Compound A86, N-{(1S,3R)-3-[5-(2′,4′-Dimethoxy-biphenyl-4-yl)-[1,2,3]triazol-1-yl]-cyclopentyl}-propionamide], the IC50 was < 300 nM.
In the case of `CC1(NC(=O)[C@H]2CC[C@@H](n3cncc3-c3ccc(-c4ccc5ncsc5c4)cc3)C2)CC1` [Compound A6, (1S,3R)-3-[5-(4-benzothiazol-6-yl-phenyl)-imidazol-1-yl]-cyclopentanecarboxylic acid (1-methyl-cyclopropyl)-amide amide], the IC50 is reported as < 300 nM.
In the case of `CCC(=O)N[C@H]1CC[C@@H](n2nncc2-c2ccc(-c3ccc(C)cc3C)cc2)C1` [Compound A89, N-{(1S,3R)-3-[5-(2′,4′-Dimethyl-biphenyl-4-yl)-[1,2,3]triazol-1-yl]-cyclopentyl}-propionamide], the IC50 is reported as < 300 nM.
For `CCC(=O)N[C@H]1CC[C@@H](n2nncc2-c2ccc(-c3ccc4nccn4c3)cc2)C1` [Compound A111, N-{(1S,3R)-3-[5-(4-Imidazo[1,2-a]pyridin-6-yl-phenyl)-[1,2,3]triazol-1-yl]-cyclopentyl}-propionamide], the IC50 was < 300 nM.
In the case of `CCC(=O)N[C@H]1CC[C@@H](n2nncc2-c2ccc(-c3ccc4cn[nH]c4c3)cc2)C1` [Compound A72, N-((1S,3R)-3-{5-[4-(1H-Indazol-6-yl)-phenyl]-[1,2,3]triazol-1-yl}-cyclopentyl)-propionamide], the IC50 is reported as < 300 nM.
`CCNC(=O)[C@H]1CC[C@@H](n2cnnc2-c2ccc(-c3cccc4[nH]ncc34)cc2)C1` [Compound A35, (1S,3R)-3-{3-[4-(1H-indazol-4-yl)-phenyl]-[1,2,4]triazol-4-yl}-cyclopentanecarboxylic acid ethylamide] was tested, and the IC50 was < 300 nM.
With `CCC(=O)N[C@H]1CC[C@@H](n2nncc2-c2ccc(-c3ccc(C#N)c(F)c3)cc2)C1` [Compound A80, N-{(1S,3R)-3-[5-(4′-Cyano-3′-fluoro-biphenyl-4-yl)-[1,2,3]triazol-1-yl]-cyclopentyl}-propionamide] the IC50 was < 300 nM.
An IC50 of 300 to 3000 nM was found for `O=C(CC1CCCC1)N[C@H]1CC[C@@H](n2nncc2-c2ccc(-c3nc4ccccc4o3)cc2)C1` [Compound A67, N-{(1S,3R)-3-[5-(4-Benzoxazol-2-yl-phenyl)-[1,2,3]triazol-1-yl]-cyclopentyl}-2-cyclopentyl-acetamide] in this work.
For `CCC(=O)N[C@H]1CC[C@@H](n2cncc2-c2ccc(-c3nc4ccccc4s3)cc2)C1` [Compound A20, N-{(1S,3R)-3-[5-(4-benzothiazol-2-yl-phenyl)-imidazol-1-yl]-cyclopentyl}-propionamide], the IC50 was < 300 nM.
With `CCC(=O)N[C@H]1CC[C@@H](n2nncc2-c2ccc(-c3ccc(C#N)cc3F)cc2)C1` [Compound A62, N-{(1S,3R)-3-[5-(4′-Cyano-2′-fluoro-biphenyl-4-yl)-[1,2,3]triazol-1-yl]-cyclopentyl}-propionamide] the IC50 was < 300 nM.
In the case of `O=C(N[C@H]1CC[C@@H](n2nncc2-c2ccc(-c3nc4ccccc4o3)cc2)C1)C1CC1` [Compound A66, Cyclopropanecarboxylic acid {(1S,3R)-3-[5-(4-benzooxazol-2-yl-phenyl)-[1,2,3]triazol-1-yl]-cyclopentyl}-amide], the IC50 is reported as < 300 nM.
An IC50 of 300 to 3000 nM was found for `O=C(N[C@H]1CC[C@@H](n2nncc2-c2ccc(-c3nc4ccccc4o3)cc2)C1)[C@H]1CCCO1` [Compound A68, (R)-Tetrahydro-furan-2-carboxylic acid {(1S,3R)-3-[5-(4-benzooxazol-2-yl-phenyl)-[1,2,3]triazol-1-yl]-cyclopentyl}-amide] in this work.
An IC50 of 300 to 3000 nM was found for `CCNC(=O)[C@H]1CC[C@@H](n2nncc2-c2ccc(-c3ccc(C(=O)O)cc3)cc2)C1` [Compound A100, 4′-[3-((1R,3S)-3-Ethylcarbamoyl-cyclopentyl)-3H-[1,2,3]triazol-4-yl]-biphenyl-4-carboxylic acid] in this work.
With `CCC(=O)N[C@H]1CC[C@@H](n2nncc2-c2ccc(-c3ccc4[nH]ccc4n3)cn2)C1` [Compound A118, N-((1S,3R)-3-{5-[5-(1H-Pyrrolo[3,2-b]pyridin-5-yl)-pyridin-2-yl]-[1,2,3]triazol-1-yl}-cyclopentyl)-propionamide] the IC50 was < 300 nM.
An IC50 of 300 to 3000 nM was found for `CCC(=O)N[C@H]1CC[C@@H](n2nncc2-c2ccc(-c3ccc4nccn4c3)nc2)C1` [Compound A109, N-{(1S,3R)-3-[5-(6-Imidazo[1,2-a]pyridin-6-yl-pyridin-3-yl)-[1,2,3]triazol-1-yl]-cyclopentyl}-propionamide] in this work.
`CCNC(=O)[C@H]1CC[C@@H](n2nncc2-c2ccc(-c3ccc(Cl)c(F)c3)cc2)C1` [Compound A104, (1S,3R)-3-[5-(4′-Chloro-3′-fluoro-biphenyl-4-yl)-[1,2,3]triazol-1-yl]-cyclopentanecarboxylic acid ethylamide] was tested, and the IC50 was < 300 nM.
An IC50 of 300 to 3000 nM was found for `CC1(NC(=O)[C@H]2CC[C@@H](n3cncc3-c3ccc(-c4ccc(C#N)cc4)cc3)C2)CC1` [Compound A12, (1S,3R)-3-[5-(4′-cyano-biphenyl-4-yl)-imidazol-1-yl]-cyclopentanecarboxylic acid (1-methyl-cyclopropyl)-amide] in this work.
In the case of `CCC(=O)N[C@H]1CC[C@@H](n2nncc2-c2ccc(-c3ccc4[nH]ccc4c3F)cc2)C1` [Compound A110, N-((1S,3R)-3-{5-[4-(4-Fluoro-1H-indol-5-yl)-phenyl]-[1,2,3]triazol-1-yl}-cyclopentyl)-propionamide], the IC50 is reported as < 300 nM.
`CCC(=O)N[C@H]1CC[C@@H](n2cnnc2-c2ccc(-c3ccc(OC)cc3C)cc2)C1` [Compound A94, N-{(1S,3R)-3-[3-(4′-Methoxy-2′-methyl-biphenyl-4-yl)-[1,2,4]triazol-4-yl]-cyclopentyl}-propionamide] was tested, and the IC50 was < 300 nM.
In the case of `CCC(=O)N[C@H]1CC[C@@H](n2nncc2-c2ccc(-c3ccc4c(c3)N(C)C(=O)C4)cc2)C1` [Compound A77, N-((1S,3R)-3-{5-[4-(1-Methyl-2-oxo-2,3-dihydro-1H-indol-6-yl)-phenyl]-[1,2,3]triazol-1-yl}-cyclopentyl)-propionamide], the IC50 is reported as < 300 nM.
For `O=C(N[C@H]1CC[C@@H](n2nncc2-c2ccc(-c3nc4ccccc4o3)cc2)C1)[C@@H]1CCCO1` [Compound A69, (S)-Tetrahydro-furan-2-carboxylic acid {(1S,3R)-3-[5-(4-benzooxazol-2-yl-phenyl)-[1,2,3]triazol-1-yl]-cyclopentyl}-amide], the IC50 was < 300 nM.
`CCC(=O)N[C@H]1CC[C@@H](n2nncc2-c2ccc(-c3ccc(C)c(F)c3)cc2)C1` [Compound A83, N-{(1S,3R)-3-[5-(3′-Fluoro-4′-methyl-biphenyl-4-yl)-[1,2,3]triazol-1-yl]-cyclopentyl}-propionamide] was tested, and the IC50 was < 300 nM.
In the case of `CCC(=O)N[C@H]1CC[C@@H](n2nncc2-c2ccc(-c3ccc(C#N)cc3)cc2)C1` [Compound A58, N-{(1S,3R)-3-[5-(4′-Cyano-biphenyl-4-yl)-[1,2,3]triazol-1-yl]-cyclopentyl}-propionamide], the IC50 is reported as < 300 nM.
